Tests used:
human chondrocytes = test: Redifferentiation of expanded human chondrocytes in pellet culture, real-time quantitative PCR of differentiation indexes; format: cell-based
Experimental: Human articular cartilage samples were collected from the hip of 3 patients with no history of joint disease, undergoing joint replacement, following femoral neck fracture.
The cartilage samples were harvested aseptically and digested with 0.15% type II collagenase for 22 hours to isolate primary chondrocytes. The cells were washed and resuspended in Dulbecco's modified Eagles medium (DMEM) supplemented with 10% fetal bovine serum, 4′500 mg/l D-Glucose, nonessential amino acids, 1 mM sodium pyruvate, 100 mM HEPES buffer, 100 U/ml penicillin, 100 μg/ml streptomycin, and 0.29 mg/ml L-glutamine (control medium, CTR). Chondrocytes were seeded into tissue culture flasks at approximately 10^4 cells/cm^2 and cultured in a humidified 37° C./5% CO^2 incubator.
After approximately 10 days, when the cells were confluent, first passage cells (P1) were detached using 0.25% trypsin/1 mM EDTA and replated at 5×10^3 cells/cm^2. After one more week, when the cells reached again confluency, second passage (P2) cells were trypsinised and cultured in pellets. Throughout the expansion phase, cells were cultured in control medium, with or without the addition of 5 ng/ml of Fibroblast Growth Factor-2 (FGF-2).
The cells were suspended at 5×10^5 cells/0.5 ml of serum-free medium (SF) consisting of DMEM supplemented with ITS+1 (containing 10 μg/ml insulin, 5.5 μg/ml transferrin, 5 ng/ml selenium, 0.5 mg/ml bovine serum albumin, 4.7 μg/ml linoleic acid), 0.1 mM ascorbic-acid 2-Phosphate, and 1.25 μg/ml human serum albumin. This suspension was centrifuged at less than 8000 rpm for 15 seconds in polypropylene conical tubes to form spherical pellets which were then statically incubated in a humidified 37° C./5% CO^2 incubator for 24 hours. […]
P, alone or in combination with A and/or D and/or H and/or T, was supplemented to the SF medium during 3D culture of the human chondrocyte cell pellets. After two weeks, the differentiation indexes (CII/CI and Agg/Ver) were assessed. […]
Further, for each primary culture, 2 pellets were formed per experimental group and assessed histologically and for quantitative PCR as described below.
Theoretical Basis. Real-time quantitative PCR monitors the degradation of a sequence-specific, dual-labeled fluorescent probe after each cycle of PCR amplification. […] After subtraction of the background fluorescence, calculated during the first 15 amplification cycles, the measured fluorescence is graphed as an amplification plot. […] The Ct value is correlated to input target mRNA amount: a larger starting quantity of mRNA target results in a lower number of PCR cycles required for the reporter fluorescent emission to reach the threshold, and therefore a lower Ct value. […]

chondrocytes = conditions: cited from earlier work
[1] = SF medium supplemented with P, 1 μg/ml, two weeks, vs control culture

## CCCCC[C@H](O)/C=C/[C@H]1[C@H](O)CC(=O)[C@@H]1C/C=C\CCCC(=O)O [P, prostaglandin E2]
Human chondrocytes; [1]
  Agg/Ver differentiation index, increase compared to the control culture: at least 2 orders of magnitude
  CII/CI differentiation index, increase compared to the control culture: at least 2 orders of magnitude
Human chondrocytes; chondrocytes expanded with 5 ng/ml FGF-2, compared with those expanded without FGF-2
  effects on differentiation indexes and CI mRNA on chondrocytes expanded with FGF-2: comparable
Human chondrocytes; pellets, SF medium supplemented with P
  expression of CI (collagen type I) mRNA: decrease

## FGF-2: fibroblast growth factor-2, growth factor added during monolayer expansion of chondrocytes
chondrocytes; chondrocytes expanded in the presence of FGF-2, versus freshly isolated (primary) chondrocytes
  cartilaginous tissue formed after seeding onto three-dimensional polymer scaffolds: histologically and biochemically comparable to that obtain using freshly isolated chondrocytes
chondrocytes; monolayer expansion in the presence of FGF-2
  formation of thick F-actin structures during monolayer expansion: inhibits
